# Molecular target: T1, G12D-mutant human KRAS (amino acid residues 1-188) (Homo sapiens, UniProt P01116, G12D)
# T1 construct: G12D or G12C-mutant human KRAS (amino acid residues 1-188) with FLAG tag; made in house; host or cells: E. coli
# Assay: KRAS Binding Disruption Assay (AlphaScreen; biotinylated KRpep-2d analogue or RAF1-RBD), G12D
# Settings: KRAS G12D; geometric mean; read-out: KRAS GMean IC50 (uM) MUTATION: G12D
# Method: Compound binding disrupts the interaction of KRpep-2d or RAF1-RBD with KRAS, leading to a decrease in Alpha signal.
# All assay components were prepared in 20 mM HEPES (pH 7.5), 100 mM NaCl, 5 mM MgCl2, 0.01% Tween-20, and 0.01% BSA. Biotinylated analogues of KRpep-2d were custom synthesized. The binding disruption assays were performed using 5-20 nM of mutant KRAS and 5-20 nM of either biotinylated KRpep-2d analogue or RAF1-RBD. 19 μL of KRAS protein and 4 μL of biotinylated KRpep-2d or RAF1-RBD were added to the wells of a 384-well plate containing 1 μL of various concentrations of test compound or DMSO vehicle. 16 wells containing KRAS, biotinylated KRpep-2d or RAF1-RBD, and 5% DMSO served as high controls. 16 wells containing KRAS only and 5% DMSO served as low controls. Binding reactions were incubated for 1 hour at 25° C., then Anti-Flag Acceptor and Streptavidin Donor Alpha beads were added at a final concentration of 10 μg/mL for an additional hour at room temperature. Alpha signal was read out on a Perkin Elmer Envision HTS instrument. The percentage inhibition at individual compound concentrations relative to high and low controls was calculated. The data were analyzed by using nonlinear regression to generate IC50 values.
# T1 sequence (P01116 1-188 isoform P01116-2 G12D): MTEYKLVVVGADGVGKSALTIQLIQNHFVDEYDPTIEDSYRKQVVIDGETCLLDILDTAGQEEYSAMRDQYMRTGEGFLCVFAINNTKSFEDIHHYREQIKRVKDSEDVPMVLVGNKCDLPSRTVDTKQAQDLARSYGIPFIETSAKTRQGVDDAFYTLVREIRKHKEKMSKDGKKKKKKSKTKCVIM
row,IC50 [µM],Compound
1,0.0001 to 10,"Oc1cc(-c2c(Cl)cc3c(N4C[C@H]5CC[C@@H](C4)N5)nc(OCCCN4CCC(F)(F)C4)nc3c2F)c2ccccc2c1 [P-0532, 4-(4-((1R,5S)-3,8-diazabicyclo[3.2.1]octan-3-yl)-6-chloro-2-(3-(3,3-difluoropyrrolidin-1-yl)propoxy)-8-fluoroquinazolin-7-yl)naphthalen-2-ol]"
2,0.0001 to 10,"Oc1cc(-c2ccc3c(N4C[C@H]5CC[C@@H](C4)N5)nc(OCC4(C(F)(F)F)CC4)nc3c2F)c2ccccc2c1 [P-0536, 4-(4-((1R,5S)-3,8-diazabicyclo[3.2.1]octan-3-yl)-8-fluoro-2-((1-(trifluoromethyl)cyclopropyl)methoxy)quinazolin-7-yl)naphthalen-2-ol]"
3,0.0001 to 10,"CC(C)(CNC(=O)CO)COc1nc(N2C[C@H]3CC[C@@H](C2)N3)c2ccc(-c3cc(O)cc4ccccc34)c(F)c2n1 [P-0537, N-(3-((4-((1R,5S)-3,8-diazabicyclo[3.2.1]octan-3-yl)-8-fluoro-7-(3-hydroxynaphthalen-1-yl)quinazolin-2-yl)oxy)-2,2-dimethylpropyl)-2-hydroxyacetamide]"
4,0.0001 to 10,"CC(C)(CO)COc1nc(N2C[C@H]3CC[C@@H](C2)N3)c2ccc(-c3cccc4cccc(Cl)c34)c(F)c2n1 [P-0541, 3-((4-((1R,5S)-3,8-diazabicyclo[3.2.1]octan-3-yl)-7-(8-chloronaphthalen-1-yl)-8-fluoroquinazolin-2-yl)oxy)-2,2-dimethylpropan-1-ol]"
5,0.0001 to 10,"NC1(CCO)CN(c2nc(N3C[C@H]4CC[C@@H](C3)N4)c3ccc(-c4cc(O)cc5ccccc45)c(F)c3n2)C1 [P-0546, 4-(2-(3-amino-3-(2-hydroxyethyl)azetidin-1-yl)-4-((1R,5S)-3,8-diazabicyclo[3.2.1]octan-3-yl)-8-fluoroquinazolin-7-yl)naphthalen-2-ol]"
6,0.0001 to 10,"O=C1NC2(CCO1)CN(c1nc(N3C[C@H]4CC[C@@H](C3)N4)c3ccc(-c4cc(O)cc5ccccc45)c(F)c3n1)C2 [P-0547, 2-(4-((1R,5S)-3,8-diazabicyclo[3.2.1]octan-3-yl)-8-fluoro-7-(3-hydroxynaphthalen-1-yl)quinazolin-2-yl)-7-oxa-2,5-diazaspiro[3.5]nonan-6-one]"
7,0.0001 to 10,"CN1CC(F)(F)C[C@H]1COc1nc(N2C[C@H]3CC[C@@H](C2)N3)c2ccc(-c3cc(O)cc4ccccc34)c(F)c2n1 [P-0553, 4-(4-((1R,5S)-3,8-diazabicyclo[3.2.1]octan-3-yl)-2-(((S)-4,4-difluoro-1-methylpyrrolidin-2-yl)methoxy)-8-fluoroquinazolin-7-yl)naphthalen-2-ol]"
8,0.0001 to 10,"CN1C[C@@H](F)C[C@H]1COc1nc(N2C[C@H]3CC[C@@H](C2)N3)c2ccc(-c3cc(O)cc4ccccc34)c(F)c2n1 [P-0554, 4-(4-((1R,5S)-3,8-diazabicyclo[3.2.1]octan-3-yl)-8-fluoro-2-(((2S,4S)-4-fluoro-1-methylpyrrolidin-2-yl)methoxy)quinazolin-7-yl)naphthalen-2-ol]"
9,0.0001 to 10,"Oc1cc(-c2ccc3c(N4C[C@H]5CC[C@@H](C4)N5)nc(N4CC5(CCC5O)C4)nc3c2F)c2ccccc2c1 (stereo partly drawn) [P-0555, 2-(4-((1R,5S)-3,8-diazabicyclo[3.2.1]octan-3-yl)-8-fluoro-7-(3-hydroxynaphthalen-1-yl)quinazolin-2-yl)-2-azaspiro[3.3]heptan-5-ol]"

# Second part, the compound before the results:
row,Compound,IC50 [µM]
1,"Fc1c(-c2csc3ccccc23)ccc2c(N3C[C@H]4CC[C@@H](C3)N4)nc(OCC34CCCN3CCC4)nc12 [P-0533, 7-(benzo[b]thiophen-3-yl)-4-((1R,5S)-3,8-diazabicyclo[3.2.1]octan-3-yl)-8-fluoro-2-((tetrahydro-1H-pyrrolizin-7a(5H)-yl)methoxy)quinazoline]",0.0001 to 10
2,Fc1c(-c2csc3cccc(Cl)c23)ccc2c(N3C[C@H]4CC[C@@H](C3)N4)nc(OCC34CCCN3CCC4)nc12 [P-0534],0.0001 to 10
3,"CCc1cc(F)cc2[nH]cc(-c3ccc4c(N5C[C@H]6CC[C@@H](C5)N6)nc(OCC56CCCN5CCC6)nc4c3F)c12 [P-0535, 4-((1R,5S)-3,8-diazabicyclo[3.2.1]octan-3-yl)-7-(4-ethyl-6-fluoro-1H-indol-3-yl)-8-fluoro-2-((tetrahydro-1H-pyrrolizin-7a(5H)-yl)methoxy)quinazoline]",0.0001 to 10
4,"C=Cc1cccc2cccc(-c3ccc4c(N5C[C@H]6CC[C@@H](C5)N6)nc(OCC56CCCN5CCC6)nc4c3F)c12 [P-0538, 4-((1R,5S)-3,8-diazabicyclo[3.2.1]octan-3-yl)-8-fluoro-2-((tetrahydro-1H-pyrrolizin-7a(5H)-yl)methoxy)-7-(8-vinylnaphthalen-1-yl)quinazoline]",0.0001 to 10
5,"O=[N+]([O-])c1cccc2cncc(-c3ccc4c(N5C[C@H]6CC[C@@H](C5)N6)nc(OCC56CCCN5CCC6)nc4c3F)c12 [P-0539, 4-((1R,5S)-3,8-diazabicyclo[3.2.1]octan-3-yl)-8-fluoro-7-(5-nitroisoquinolin-4-yl)-2-((tetrahydro-1H-pyrrolizin-7a(5H)-yl)methoxy)quinazoline]",0.0001 to 10
6,"Nc1ccc(Cl)c(-c2c(Cl)cc3c(N4C[C@H]5CC[C@@H](C4)N5)nc(OCC45CCCN4CCC5)nc3c2F)c1 [P-0540, 3-(4-((1R,5S)-3,8-diazabicyclo[3.2.1]octan-3-yl)-6-chloro-8-fluoro-2-((tetrahydro-1H-pyrrolizin-7a(5H)-yl)methoxy)quinazolin-7-yl)-4-chloroaniline]",0.0001 to 10
7,"CS(=O)(=O)NCCN1[C@@H]2CC[C@H]1CN(c1nc(OCC34CCCN3CCC4)nc3c(F)c(-c4cc(O)cc5ccccc45)ccc13)C2 [P-0542, N-(2-((1R,5S)-3-(8-fluoro-7-(3-hydroxynaphthalen-1-yl)-2-((tetrahydro-1H-pyrrolizin-7a(5H)-yl)methoxy)quinazolin-4-yl)-3,8-diazabicyclo[3.2.1]octan-8-yl)ethyl)methanesulfonamide]",0.0001 to 10
8,"NC(=O)NCCN1[C@@H]2CC[C@H]1CN(c1nc(OCC34CCCN3CCC4)nc3c(F)c(-c4cc(O)cc5ccccc45)ccc13)C2 [P-0543, 1-(2-((1R,5S)-3-(8-fluoro-7-(3-hydroxynaphthalen-1-yl)-2-((tetrahydro-1H-pyrrolizin-7a(5H)-yl)methoxy)quinazolin-4-yl)-3,8-diazabicyclo[3.2.1]octan-8-yl)ethyl)urea]",0.0001 to 10
9,"CC(=O)NCCN1[C@@H]2CC[C@H]1CN(c1nc(OCC34CCCN3CCC4)nc3c(F)c(-c4cc(O)cc5ccccc45)ccc13)C2 [P-0544, N-(2-((1R,5S)-3-(8-fluoro-7-(3-hydroxynaphthalen-1-yl)-2-((tetrahydro-1H-pyrrolizin-7a(5H)-yl)methoxy)quinazolin-4-yl)-3,8-diazabicyclo[3.2.1]octan-8-yl)ethyl)acetamide]",0.0001 to 10
10,"NCCN1[C@@H]2CC[C@H]1CN(c1nc(OCC34CCCN3CCC4)nc3c(F)c(-c4cc(O)cc5ccccc45)ccc13)C2 [P-0545, 4-(4-((1R,5S)-8-(2-aminoethyl)-3,8-diazabicyclo[3.2.1]octan-3-yl)-8-fluoro-2-((tetrahydro-1H-pyrrolizin-7a(5H)-yl)methoxy)quinazolin-7-yl)naphthalen-2-ol]",0.0001 to 10
11,"Cc1ccc2[nH]nc(C)c2c1-c1ccc2c(N3C[C@H]4CC[C@@H](C3)N4)nc(OCC34CCCN3CCC4)nc2c1F [P-0548, 4-((1R,5S)-3,8-diazabicyclo[3.2.1]octan-3-yl)-7-(3,5-dimethyl-1H-indazol-4-yl)-8-fluoro-2-((tetrahydro-1H-pyrrolizin-7a(5H)-yl)methoxy)quinazoline]",0.0001 to 10
12,"CCc1cccc2[nH]cc(-c3ncc4c(N5C[C@H]6CC[C@@H](C5)N6)nc(OCC56CCCN5CCC6)nc4c3F)c12 [P-0549, 4-((1R,5S)-3,8-diazabicyclo[3.2.1]octan-3-yl)-7-(4-ethyl-1H-indol-3-yl)-8-fluoro-2-((tetrahydro-1H-pyrrolizin-7a(5H)-yl)methoxy)pyrido[4,3-d]pyrimidine]",0.0001 to 10
13,"NC(=O)CN1[C@@H]2CC[C@H]1CN(c1nc(OCC34CCCN3CCC4)nc3c(F)c(-c4cc(O)cc5ccccc45)ccc13)C2 [P-0550, 2-((1R,5S)-3-(8-fluoro-7-(3-hydroxynaphthalen-1-yl)-2-((tetrahydro-1H-pyrrolizin-7a(5H)-yl)methoxy)quinazolin-4-yl)-3,8-diazabicyclo[3.2.1]octan-8-yl)acetamide]",0.0001 to 10
14,"CC(C)(C)OC(=O)NCCN1[C@@H]2CC[C@H]1CN(c1nc(OCC34CCCN3CCC4)nc3c(F)c(-c4cc(O)cc5ccccc45)ccc13)C2 [P-0551, tert-butyl (2-((1R,5S)-3-(8-fluoro-7-(3-hydroxynaphthalen-1-yl)-2-((tetrahydro-1H-pyrrolizin-7a(5H)-yl)methoxy)quinazolin-4-yl)-3,8-diazabicyclo[3.2.1]octan-8-yl)ethyl)carbamate]",0.0001 to 10
15,"O=C(O)CN1[C@@H]2CC[C@H]1CN(c1nc(OCC34CCCN3CCC4)nc3c(F)c(-c4cc(O)cc5ccccc45)ccc13)C2 [P-0552, 2-((1R,5S)-3-(8-fluoro-7-(3-hydroxynaphthalen-1-yl)-2-((tetrahydro-1H-pyrrolizin-7a(5H)-yl)methoxy)quinazolin-4-yl)-3,8-diazabicyclo[3.2.1]octan-8-yl)acetic acid]",0.0001 to 10
